How the values were obtained:
[1] = molecular target: UDP-glucuronosyltransferase 2B15 (Homo sapiens, UniProt P54855); test: Drug metabolism assessed as UDPGA-fortified human recombinant UGT2B15-mediated DTG glucuronide metabolite ((2S,3S,4S,5R,6S)-6-((4R,12aS)-9-(2,4-difluorobenzylcarbamoyl)-4-methyl-6,8-dioxo-3,4,6,8,12,12a-hexahydro-2H-[1,3]oxazino[3,2-d]pyrido[1,2-a]pyrazin-7-yloxy)-3,4,5-trihydroxytetrahydro-2H-pyran-2-carboxylic acid) formation at 16 uM after 120 mins by radio-HPLC analysis; assay type: ADME; conditions: recombinant enzyme
Hepatocyte [2] = test: Induction of CYP2B6 mRNA expression in human hepatocytes at 1 to 40 uM after 48 hrs by real time PCR analysis; assay type: ADME, cell-based
[3] = molecular target: T1, UDP-glucuronosyltransferase 1A1 (Homo sapiens, UniProt P22309); test: Drug metabolism in UDPGA-fortified human liver microsomes assessed as UGT1A1-mediated DTG glucuronide M2 ((2S,3S,4S,5R,6S)-6-((4R,12aS)-9-(2,4-difluorobenzylcarbamoyl)-4-methyl-6,8-dioxo-3,4,6,8,12,12a-hexahydro-2H-[1,3]oxazino[3,2-d]pyrido[1,2-a]pyrazin-7-yloxy)-3,4,5-trihydroxytetrahydro-2H-pyran-2-carboxylic acid) formation after 120 mins measured per mg of protein by radio-HPLC analysis; assay type: ADME
T1 sequence (P22309 whole entry): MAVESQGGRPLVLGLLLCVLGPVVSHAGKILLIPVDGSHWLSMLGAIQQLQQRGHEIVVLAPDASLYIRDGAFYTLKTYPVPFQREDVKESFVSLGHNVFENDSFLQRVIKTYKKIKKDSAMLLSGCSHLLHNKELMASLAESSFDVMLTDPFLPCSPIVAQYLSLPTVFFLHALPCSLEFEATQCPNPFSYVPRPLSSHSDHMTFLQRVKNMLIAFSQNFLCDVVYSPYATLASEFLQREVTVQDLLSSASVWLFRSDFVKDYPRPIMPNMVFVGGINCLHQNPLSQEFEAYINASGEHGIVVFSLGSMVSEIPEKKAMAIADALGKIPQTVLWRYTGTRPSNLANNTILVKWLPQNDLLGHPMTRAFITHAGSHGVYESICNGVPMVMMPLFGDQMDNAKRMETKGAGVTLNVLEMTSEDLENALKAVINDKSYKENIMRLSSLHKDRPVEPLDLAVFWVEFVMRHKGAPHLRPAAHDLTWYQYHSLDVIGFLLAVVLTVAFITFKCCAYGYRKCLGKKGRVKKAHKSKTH

[4] = molecular target: T2, Broad substrate specificity ATP-binding cassette transporter ABCG2 (Homo sapiens, UniProt Q9UNQ0); test: Inhibition of BCRP (unknown origin) expressed in MDCK2 cells assessed as basolateral to apical transport of [14C]cimetidine after 90 mins by liquid scintillation counting analysis; assay type: ADME, cell-based, MDCK-II
T2 sequence (Q9UNQ0 whole entry): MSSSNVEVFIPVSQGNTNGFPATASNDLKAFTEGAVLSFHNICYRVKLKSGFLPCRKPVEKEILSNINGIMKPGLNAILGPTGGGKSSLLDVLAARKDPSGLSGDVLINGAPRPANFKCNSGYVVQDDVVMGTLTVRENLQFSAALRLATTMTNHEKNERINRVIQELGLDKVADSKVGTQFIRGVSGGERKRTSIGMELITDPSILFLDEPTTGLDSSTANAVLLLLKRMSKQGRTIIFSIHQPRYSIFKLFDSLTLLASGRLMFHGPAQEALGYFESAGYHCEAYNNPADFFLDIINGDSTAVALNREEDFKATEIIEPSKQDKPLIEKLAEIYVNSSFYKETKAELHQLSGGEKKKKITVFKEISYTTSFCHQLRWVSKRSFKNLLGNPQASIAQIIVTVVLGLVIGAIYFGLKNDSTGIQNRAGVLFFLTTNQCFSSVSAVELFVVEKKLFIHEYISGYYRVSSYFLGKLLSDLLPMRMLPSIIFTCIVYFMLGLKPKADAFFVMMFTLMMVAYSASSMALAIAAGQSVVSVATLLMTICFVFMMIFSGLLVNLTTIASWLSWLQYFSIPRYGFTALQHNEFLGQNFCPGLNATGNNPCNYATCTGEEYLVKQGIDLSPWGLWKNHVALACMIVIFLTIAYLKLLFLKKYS

[5] = molecular target: T1, UDP-glucuronosyltransferase 1A1; test: Inhibition of human recombinant UGT1A1 expressed in supersomes assessed as scopoletin glucuronidation by fluorescence analysis; assay type: ADME
Cytochrome P450 2C9 = Cytochrome P450 2C9 (Homo sapiens, UniProt P11712); test: Drug metabolism in supersomes expressing human recombinant CYP2C9 assessed as NADPH-fortified enzyme-mediated metabolite formation at 5 uM after 120 mins by radio HPLC analysis; assay type: ADME; conditions: 2 h
[6] = molecular target: T1, UDP-glucuronosyltransferase 1A1; test: Drug metabolism assessed as human recombinant UGT1A1-mediated DTG glucuronide M2 ((2S,3S,4S,5R,6S)-6-((4R,12aS)-9-(2,4-difluorobenzylcarbamoyl)-4-methyl-6,8-dioxo-3,4,6,8,12,12a-hexahydro-2H-[1,3]oxazino[3,2-d]pyrido[1,2-a]pyrazin-7-yloxy)-3,4,5-trihydroxytetrahydro-2H-pyran-2-carboxylic acid) formation after 120 mins measured per mg of protein by radio-HPLC analysis; assay type: ADME; conditions: recombinant enzyme
Cytochrome P450 2C8 = molecular target: T3, Cytochrome P450 2C8 (Homo sapiens, UniProt P10632); test: Metabolism-dependent inhibition of CYP2C8 in human liver microsomes using rosiglitazone as substrate preincubated for 20 mins with NADPH prior to initiation of reaction with probe substrate by HPLC analysis; assay type: ADME
T3 sequence (P10632 whole entry): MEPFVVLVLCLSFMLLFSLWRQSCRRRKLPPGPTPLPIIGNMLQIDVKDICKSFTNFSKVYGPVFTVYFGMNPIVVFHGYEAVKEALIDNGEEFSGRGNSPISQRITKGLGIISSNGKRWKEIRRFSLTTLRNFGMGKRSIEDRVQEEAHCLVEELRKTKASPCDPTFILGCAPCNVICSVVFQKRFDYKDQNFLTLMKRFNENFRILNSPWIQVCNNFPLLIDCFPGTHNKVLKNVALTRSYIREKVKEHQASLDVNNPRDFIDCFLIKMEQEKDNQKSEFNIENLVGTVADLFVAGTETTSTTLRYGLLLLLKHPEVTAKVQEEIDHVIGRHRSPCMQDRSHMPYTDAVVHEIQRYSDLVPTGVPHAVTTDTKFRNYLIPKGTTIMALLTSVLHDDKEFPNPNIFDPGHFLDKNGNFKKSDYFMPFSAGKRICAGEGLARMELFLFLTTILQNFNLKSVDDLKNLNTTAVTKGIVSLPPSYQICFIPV

Liver microsome = test: Drug metabolism in NADPH-fortified human liver microsomes assessed as metabolite M3 ((4R,12aS)-N-((3,5-difluorophenyl)(hydroxy)methyl)-7-hydroxy-4-methyl-6,8-dioxo-3,4,6,8,12,12a-hexahydro-2H-[1,3]oxazino[3,2-d]pyrido[1,2-a]pyrazine-9-carboxamide) formation at 5 uM after 120 mins treated 5 mins after selective CYP3A4 inhibitor azamulin addition by radio-HPLC analysis; assay type: ADME
Hepatocyte [7] = test: Induction of CYP3A4 mRNA expression in human hepatocytes at 1 to 40 uM after 48 hrs by real time PCR analysis; assay type: ADME, cell-based
[8] = molecular target: Solute carrier organic anion transporter family member 1B1 (Homo sapiens, UniProt Q9Y6L6); test: Inhibition of human OATP1B1 expressed in CHO cells using [3H]estradiol 17beta-D-glucuronide as substrate by liquid scintillation counting analysis; assay type: ADME, cell-based
Cytochrome P450 2D6 = Cytochrome P450 2D6 (Homo sapiens, UniProt P10635); test: Inhibition of CYP2D6 in human liver microsomes using bufuralol as substrate preincubated for 20 mins with substrate prior to initiation of reaction with NADPH by HPLC analysis; assay type: ADME
Chain of Cytochrome P450 2D6 (P10635 whole entry): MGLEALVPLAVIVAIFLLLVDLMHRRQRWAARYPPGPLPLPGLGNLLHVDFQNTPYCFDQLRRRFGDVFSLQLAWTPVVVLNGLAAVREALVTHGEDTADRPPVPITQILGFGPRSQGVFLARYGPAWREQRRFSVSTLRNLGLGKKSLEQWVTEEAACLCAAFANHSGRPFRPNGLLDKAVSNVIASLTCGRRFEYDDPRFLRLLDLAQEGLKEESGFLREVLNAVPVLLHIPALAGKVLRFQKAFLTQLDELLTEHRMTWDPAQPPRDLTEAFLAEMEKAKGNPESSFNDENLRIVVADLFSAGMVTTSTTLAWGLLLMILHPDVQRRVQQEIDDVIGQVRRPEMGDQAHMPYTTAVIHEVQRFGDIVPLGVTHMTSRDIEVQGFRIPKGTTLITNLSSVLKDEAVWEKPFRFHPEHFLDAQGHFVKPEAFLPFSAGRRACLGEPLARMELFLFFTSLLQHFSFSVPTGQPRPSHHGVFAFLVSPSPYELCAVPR

Chain of Solute carrier organic anion transporter family member 1B1 (Q9Y6L6 whole entry): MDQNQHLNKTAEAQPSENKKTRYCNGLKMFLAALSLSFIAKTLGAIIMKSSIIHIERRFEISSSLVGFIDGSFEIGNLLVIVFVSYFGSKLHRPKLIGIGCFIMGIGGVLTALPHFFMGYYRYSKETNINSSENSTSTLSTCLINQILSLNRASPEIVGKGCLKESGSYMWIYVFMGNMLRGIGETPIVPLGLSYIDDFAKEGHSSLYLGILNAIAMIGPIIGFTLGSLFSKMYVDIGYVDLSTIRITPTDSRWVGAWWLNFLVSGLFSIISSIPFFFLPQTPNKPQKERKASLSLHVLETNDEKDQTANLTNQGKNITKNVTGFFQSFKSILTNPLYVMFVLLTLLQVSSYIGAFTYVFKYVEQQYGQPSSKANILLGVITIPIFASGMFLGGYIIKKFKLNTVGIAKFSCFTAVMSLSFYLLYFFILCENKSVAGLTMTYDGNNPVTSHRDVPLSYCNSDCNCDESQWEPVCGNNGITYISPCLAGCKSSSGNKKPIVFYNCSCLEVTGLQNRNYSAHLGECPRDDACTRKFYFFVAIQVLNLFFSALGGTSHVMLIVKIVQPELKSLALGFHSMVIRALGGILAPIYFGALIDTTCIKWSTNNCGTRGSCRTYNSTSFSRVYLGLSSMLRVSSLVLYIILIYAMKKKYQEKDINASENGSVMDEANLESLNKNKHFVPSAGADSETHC
Chain of UDP-glucuronosyltransferase 2B15 (P54855 whole entry): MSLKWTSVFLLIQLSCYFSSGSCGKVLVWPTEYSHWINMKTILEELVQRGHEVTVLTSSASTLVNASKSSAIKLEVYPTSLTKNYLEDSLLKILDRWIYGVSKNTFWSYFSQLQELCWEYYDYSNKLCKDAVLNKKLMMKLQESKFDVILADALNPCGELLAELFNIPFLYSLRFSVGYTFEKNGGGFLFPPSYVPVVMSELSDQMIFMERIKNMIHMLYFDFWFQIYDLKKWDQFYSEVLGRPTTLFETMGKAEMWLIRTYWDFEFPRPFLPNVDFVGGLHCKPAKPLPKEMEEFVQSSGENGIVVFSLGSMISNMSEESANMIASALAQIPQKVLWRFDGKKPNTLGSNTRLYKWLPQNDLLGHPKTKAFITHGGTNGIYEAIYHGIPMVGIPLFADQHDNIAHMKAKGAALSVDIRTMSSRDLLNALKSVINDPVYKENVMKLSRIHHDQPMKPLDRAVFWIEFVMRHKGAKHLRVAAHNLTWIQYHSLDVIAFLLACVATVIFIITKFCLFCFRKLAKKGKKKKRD
Chain of Cytochrome P450 2C9 (P11712 whole entry): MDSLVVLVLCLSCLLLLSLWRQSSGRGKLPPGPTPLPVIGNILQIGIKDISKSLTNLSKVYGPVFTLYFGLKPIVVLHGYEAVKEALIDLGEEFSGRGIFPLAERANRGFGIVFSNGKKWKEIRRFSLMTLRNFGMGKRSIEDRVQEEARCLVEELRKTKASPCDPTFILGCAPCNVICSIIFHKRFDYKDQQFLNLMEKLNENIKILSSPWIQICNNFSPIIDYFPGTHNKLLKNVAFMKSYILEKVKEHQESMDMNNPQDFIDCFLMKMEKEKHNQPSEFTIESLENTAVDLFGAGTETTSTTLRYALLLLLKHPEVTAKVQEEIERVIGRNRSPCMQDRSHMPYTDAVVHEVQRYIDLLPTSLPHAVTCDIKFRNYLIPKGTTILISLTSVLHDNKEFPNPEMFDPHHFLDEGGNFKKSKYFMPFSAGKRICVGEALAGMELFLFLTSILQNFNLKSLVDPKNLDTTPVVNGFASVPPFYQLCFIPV

Question: Which Drug metabolism [1] does the source give for C[C@@H]1CCO[C@H]2Cn3cc(C(=O)NCc4ccc(F)cc4F)c(=O)c(O)c3C(=O)N12 [DOLUTEGRAVIR] here?
Answer: Its Drug metabolism is “metabolite_not_detected”.

Question: And the Activity (Hepatocyte [2])?
Answer: Its Activity is “Toxic”.

Question: What about the Vmax [3] of the same molecule?
Answer: The Vmax was 409 pmol/min.

Question: And the IC50 [4]?
Answer: The IC50 was greater than 30 µM.

Question: And the IC50 [5]?
Answer: The IC50 was greater than 100 µM.

Question: What about the Drug metabolism (Cytochrome P450 2C9) of the same molecule?
Answer: Its Drug metabolism is “metabolite_not_detected”.

Question: And the Vmax [6]?
Answer: The Vmax was 67 pmol/min.

Question: And the IC50 (Cytochrome P450 2C8)?
Answer: Its IC50 is greater than 100 µM.

Question: And the Drug metabolism (Liver microsome)?
Answer: The Drug metabolism was “metabolite_not_detected”.

Question: What about the Activity (Hepatocyte [7]) of the same molecule?
Answer: The Activity was “Toxic”.

Question: What about the IC50 [8] of the same molecule?
Answer: Its IC50 is greater than 100 µM.

Question: And the IC50 (Cytochrome P450 2D6)?
Answer: The IC50 was greater than 100 µM.

Reference: ChEMBL document CHEMBL3526034 (Drug Metab Dispos, 2013)
